Measurements reported in patent US20240130690A1, “NON-INVASIVE DETERMINATION OF A PHY[…] OF INTEREST IN A SUBJECT FROM SPECTRAL DATA PROCESSED USING A TRAINED MACHINE LEARNING MODEL” (ISBRG CORP., priority 2021, published 2024).

Key:
[1] = Analyte composition of a subject after cannabis consumption (illustrative Table 2); assay type: in vivo, human; conditions: simplified data set to exemplify the method; for Analyte level, intoxicated state: 1 hr after consumption; for Analyte level, post-intoxicated state: 36 hr after consumption
From the text: For example, which is not to be considered limiting, in a THC induced intoxicated sate, a subject may comprise the analyte composition presented in Table 1. It is to be understood that this table presents a simplified data set to exemplify the method described herein. Other analytes, which may include known analytes or ghost analytes, are indicated as analytes A, B . . . C; A′, B′, . . . C′; A″, B″ . . . C″. These other analytes may increase or decrease in response to, or that are correlated with, the physiological condition and they may be included in this analysis.
In this example, the result may be considered positive for a THC-induced intoxicated state if the Index is greater than a preset value which is determined based on an analysis of the analytes determined in subjects who were exposed to a control treatment, or a range of THC under controlled conditions, for example an Index value of (2+A)/(C+ . . . +C) may be an indication of a positive result for the state of THC-induced intoxication.

[2] = cited from earlier work

SMILES | Analyte level, intoxicated state [1] [ng/mL] | Analyte level, post-intoxicated state [1] [ng/mL] | residual THC in serum ([2]; chronic users of marijuana, detected for 24 to 48 hours or longer, serum) [ng/mL] | residual THC in whole blood ([2]; chronic users of marijuana, detected for 24 to 48 hours or longer, whole blood) [ng/mL] | time of THC peak after inhaling ([2]; smoked marijuana) | THC level remaining ([2]; smoked marijuana, for 8 hours or more) [ng/mL]
CCCCCc1cc(O)c2c(c1)OC(C)(C)C1CCC(CO)=CC21 (stereo not shown) [11-OH-THC, 11-hydroxy THC] | 5 | 2 | – | – | – | –
CCCCCc1cc(O)c2c(c1)OC(C)(C)[C@@H]1CCC(C)=C[C@@H]21 [THC, delta-9-tetrahydrocannabinol] | 78 | 8 | 1.0 to 6.4 | 0.5 to 3.2 | first few minutes | 1 to 2
CCCCCc1cc(O)c2c(c1)OC(C)(C)[C@@H]1CCC(C(=O)O)=C[C@@H]21 [THC-COOH, 11-nor-9-carboxy-THC] | 5 | 11 | – | – | – | –
